Here are results for four molecules from US20060058383A1 (priority 2004, published 2006).

In experiment [1] the test system is HL-60/AR cells. Put plainly: MTT cytotoxicity, drug-resistant clone versus parental cells. The following applies: MTT assay. Format: cell-based, human. Here is the method: HL-60 cell line and its drug-resistant clone HL-60/AR were incubated with the indicated concentrations of doxorubicin, vincristine, and 3-BrPA for 72 h. Cytotoxicity was measured by MTT assay. […] Based on the teachings provided herein, studies may be performed to determine the sensitivity of HL-60/AR cells to Glycolycin.
Ara-C, a drug commonly used in the frontline treatment of leukemia, was used in parallel experiments. Cytotoxicity was measured by MTT assay.

Experiment [2] concerns human lymphoma cells (Raji). In words: Apoptosis, annexin-V/PI flow cytometry. Format: cell-based. From the text: Because the mTOR pathway plays an important role in promoting cellular nutrient metabolism and cell growth, and function to enhance cell survival downstream of the P13K/Akt pathway, the present inventors postulated that a simultaneous inhibition of mTOR and glycolysis, which serve as a major metabolic pathway for ATP generation in cancer cells, would severely impact cellular energy metabolism and have a potent cytotoxic effect against malignant cells. To test this possibility, rapamycin was used as an agent to inhibit mTOR, and glycolycin (3-bromo-2-oxopropionate, abbreviated herein as 3-BrOP) to inhibit glycolysis.
(§1) Cell growth inhibition was determined by direct counting of the cells after they were treated with rapamycin, 3-BrOP, or their combination. A Coulter Z2 Particle Count & Size Analyzer was used to determine cell counts at 24 h, 48 h, and 72 h after drug incubation. Apoptosis was measured by flow cytometric analysis of cells stained with annexin V-FITC and propidium iodide (PI). Cells were treated with the indicated compounds under various incubation conditions as described in the figure legends. The samples were collected, washed with cold PBS, and then suspended in annexin-V binding buffer. The cells were stained with annexin V-FITC for 15 min at room temperature, washed, and then stained with PI. The samples were analyzed using a FACSCalibur flow cytometer equipped with CELLQuestPro software (Becton-Dickinson, San Jose, Calif.).

The test system of experiment [3] is HL-60 cells with high Bcl-2 expression. Put plainly: MTT growth inhibition of Bcl-2 transfected cells. Type of experiment: cell-based, human. The following applies: MTT assay. Here is the method:
Cell growth inhibition was measured by MTT assay.
Increased expression of the anti-apoptotic molecule Bcl-2 has been associated with drug resistance in cancer cells. The over-expression of Bcl-2 in HL-60 cells was […] against the cytotoxic effect of S-Glycolycin. […] Thus, Glycolycin may be used to overcome drug resistance due to Bcl-2 over expression.
(Tetrazolium assays rely on reduction of a dye to a coloured formazan, in cell work by metabolically active cells.)

Experiment [4] relates to human lymphoma cells (Raji). In words: Sensitivity under hypoxic versus normoxic conditions, annexin-V/PI assay 24 h. Format: cell-based. The following applies: 0.3 μM. Here is the method: (Annexin-V/PI assay, 24 h)
(§2) Cancer cells in solid tumors have to adapt to the hypoxia environment due to insufficient blood supply. Under hypoxia conditions, cancer cells use the glycolytic pathway to generate ATP without consuming oxygen. This metabolic adaptation also renders cancer cells relatively resistant to anticancer agents and radiation therapy, partially due to up-regulation of expression of cell survival factors such as HIF-1α. […] However, because under hypoxia condition cancer cells dependent on glycolysis for generation of ATP, it is contemplated that such cancer cells are vulnerable to glycolytic inhibition by Glycolycin. […] Thus, it is envisioned that Glycolycin can be use for effective treatment of many solid tumors, either as a single agent or in combination with other anticancer agents.

Experiment [5] has as its system human colon cancer (HCT116) cells. In words: Sensitivity under hypoxic versus normoxic conditions, annexin-V/PI assay. Format: cell-based.
From the text: as §2

Experiment [6] concerns Raji cells. In words: Cell growth by direct cell counting (Coulter Z2). Format: cell-based, human. The following applies: 100 ng/ml alone; up to 72 h. Here is the method:
A different assay was then used to further confirm the synergy between rapamycin and 3-BrOP. Raji cells were treated with 30 μM 3-BrOP, 100 ng/ml rapamycin, or their combination, and the numbers of cells were directly counted for consecutive 3 days, using a Coulter Z2 Particle Count & Size Analyzer.
as §1

In experiment [7] the test system is Raji cells. In words: Cellular glucose uptake, [3H]-2-deoxyglucose. Type of experiment: cell-based, human. The following applies: 100 ng/ml for 20 h. Here is the method: After the samples were washed three times with cold PBS, the radioactivity in the cell pellets was quantified by liquid scintillation counting. […] Intracellular nucleotides were extracted from the cells with 0.4 N of perchloric acid (PCA) for 10 min in ice-bath, neutralization with concentrated KOH to pH 7.0, and analyzed by HPLC analysis as described previously (Xu et al., 2005; Seymour et al., 1996). The intracellular ATP contents were calculated using the ATP standard curve generated under identical HPLC conditions, and normalized by equal cell number. The relative cellular ATP levels were expressed as percent of the control cells.

Take `Nc1ccn([C@@H]2O[C@H](CO)[C@@H](O)[C@@H]2O)c(=O)n1` [ara-C]: in experiment [1], the “sensitivity of HL-60/AR compared to parental HL-60 cells” value is given as “moderately resistant”. Moreover, in experiment [2] (concentration range of 0.5-1 μM, 30 h), the “apoptosis, % of the cells” value was 20-35%. For the same molecule, in experiment [3], the “sensitivity of Bcl-2 transfected cells compared to transfected control (Neo)” value is recorded as “reduced sensitivity”.
In the case of `COc1cccc2c1C(=O)c1c(O)c3c(c(O)c1C2=O)C[C@@](O)(C(=O)CO)C[C@@H]3O[C@H]1C[C@H](N)[C@H](O)[C@H](C)O1` [doxorubicin], the “sensitivity of HL-60/AR compared to parental HL-60 cells” value in experiment [1] was “highly resistant”. Besides, the “sensitivity under hypoxic versus normoxic conditions” value is given as “slightly reduced” in experiment [4] and “reduced” in experiment [5]. In addition, the “sensitivity of Bcl-2 transfected cells compared to transfected control (Neo)” value in experiment [3] is “reduced sensitivity”.
`CO[C@H]1C[C@@H]2CC[C@@H](C)[C@@](O)(O2)C(=O)C(=O)N2CCCC[C@H]2C(=O)O[C@H]([C@H](C)C[C@@H]2CC[C@@H](O)[C@H](OC)C2)CC(=O)[C@H](C)/C=C(\C)[C@@H](O)[C@@H](OC)C(=O)[C@H](C)C[C@H](C)/C=C/C=C/C=C/1C` [rapamycin, reference compound]: the apoptosis in experiment [2] (100 ng/ml alone) was found to be 4.8%. Moreover, in experiment [6], the “decrease in cell numbers” value was around 35%. Besides, the “decrease in glucose uptake” value in experiment [7] is 6%.
On to `CC[C@]1(O)C[C@H]2CN(CCc3c([nH]c4ccccc34)[C@@](C(=O)OC)(c3cc4c(cc3OC)N(C=O)[C@H]3[C@@](O)(C(=O)OC)[C@H](OC(C)=O)[C@]5(CC)C=CCN6CC[C@]43[C@@H]65)C2)C1` [vincristine], for which the “sensitivity of HL-60/AR compared to parental HL-60 cells” value in experiment [1] was “highly resistant”.
